Results published in patent publication US6972111B1, “Rosin amine anti-fouling agents” (Bayer Aktiengesellschaft, priority 1999, dated 2005).

Test system: cyprid larvae of the barnacle Balanus amphitrite
Test: Settlement assay of cyprid larvae of the barnacle Balanus amphitrite
Assay type: in vivo
Conditions: cyprid larvae in seawater test solution, 27° C.±2; Spearman-Kärber method
Procedure: The rate of settlement of laboratory reared cyprid larvae of the barnacle Balanus amphitrite was determined for testing the activity of candidate anti-fouling compounds. Settlement Assay Tests are carried out in four replicates in sterile polystyrene multi well plates. Between 25 and 40 cyprid larvae are injected in the dishes containing either 2 ml of test solution (see below), solvent control or a positive control (Dichloro-n-octyl-isothiazolinone). Dishes are incubated for 24 h at a temperature of 27° C.±2. After incubation the cyprids are screened for signs of toxicity. Larvae are classified in three categories: A) alive and swimming; B) alive but not active; C) dead. The test is terminated by addition of a drop of 20% formaldehyde and the numbers of settled and non-settled larvae are counted. Settlement is evaluated as follows: 1) Non settled: not attached free swimming cyprids; 2) settled cyprids: attached, but not metamorphosed cyprids; 3) barnacles: attached juvenile barnacles. Categories 2 and 3 are considered to be settled. Percentage settlement in test solution is compared with controls. Estimates of the median effect concentration (EC-50) after […]. are calculated using the Spearman-Kärber method. All seawater used is of natural origin and filtered unto 0.2 micron. […]

For `CCCCCCCCn1sc(Cl)c(Cl)c1=O` [reference*, 4,5-dichloro-n-octylisothiazolinone], the “EC50 for settlement inhibition in ppm” value was 0.37 ppm.
